# Experimental data reported in patent publication US7273888B2, “Use of difluoromethylornithine (DFMO) for the treatment of amyotrophic lateral sclerosis” (ALS Therapy Development Foundation, Inc., priority 2001, dated 2007).
# Experiments:
# [1] = system: SOD1 G93A mice; test: Neurological score analysis in SOD1 G93A (high copy) mouse model of ALS; format: in vivo
# Text: Survival in the mouse is copy dependent.
# Controls animals were given water as vehicle.
# [2] = system: SOD1 G93A mice; test: Survival analysis (Kaplan-Meier) in SOD1 G93A (high copy) mouse model of ALS
# Text: (i) Model Description: The SOD1 G93A (high copy) mouse model was used as the model for ALS. This mouse model carries 25 copies of the human G93A SOD mutation and is driven by the endogenous promoter.
# (ii) Murine FALS model: Heterozygous transgenic mice carrying the human SOD-1 (G93A) gene were obtained from Jackson Laboratory (Bar Harbor, Me., USA).
# (iv) Methods: Forty (n=40) SOD1 G93A high copy mice obtained from Jackson Laboratory (Bar Harbor, Me.) were separated into two groups of twenty (n=20) with an equal number of males (n=10) and females (n=10) in each group. The groups were also litter matched to reduce group variation. Male animals were singly housed and females were group housed to conserve space. […] When animals had difficulty in moving and taking care of themselves chow and water were replaced with food pellets in bedding and Jell-O for water. (v) Pharmacological Agent Delivery: All pharmacological agents were administered to SOD1 G93A mice.
# Controls animals were given water as vehicle. All treatments are performed 7 days per week and treatment was initiated at day 60 of life. […] When a neurological score of 2 is attained, the animals are no longer capable of drinking themselves due to paralysis. […] Controls were given water as vehicle until a neurological score of 2 at which point they were injected with saline as vehicle.
# • 0=Normal reflex on the hind limbs (animal will splay its hind limbs when lifted by its tail). • 1=Abnormal reflex of hind limbs (lack of splaying of hind limbs when animal is lifted by the tail). • 2=Abnormal reflex of limbs and evidence of paralysis. • 3=Lack of reflex and complete paralysis. • 4=Inability to right themselves when placed on the sides in 30 seconds or found dead. The animals are sacrificed at this stage if alive.
# [3] = system: patients with advanced non-small cell lung cancer; settings: Phase I, advanced non-small cell lung cancer (Hahm et al. 2002); cited from earlier work
# [4] = system: SOD1 G93A mice; settings: mouse, in vivo, ip, 250 mg/kg/day
# [5] = discontinuous dosing 3200 mg/Kg/day in drinking water, 21 days on / 7 days off
# [6] = female mice, IP 24 mg/kg/day twice daily till death, FIG. 12
compound,measurement,setting,value
"NCCCC(N)(C(=O)O)C(F)F (racemic) [DFMO, 2-(Difuoromethyl)-DL-ornithine]",effect on neurological score,"[1]; combined male and female, continuous dosing 3200 mg/Kg/day, FIGS. 5",protective
same,effect on neurological score,"[1]; female mice, discontinuous dosing 3200 mg/Kg/day, during the drug delivery period",protective
same,effect on neurological score,"[1]; female, continuous dosing 3200 mg/Kg/day, FIG. 9",protective
same,effect on neurological score,"[1]; male, continuous dosing 3200 mg/Kg/day, FIG. 7",protective
same,onset of disease,"[2]; continuous dosing 3200 mg/Kg/day in drinking water, no drug holiday",delays the onset of disease
same,life span,"[2]; continuous dosing 3200 mg/Kg/day in drinking water, no drug holiday, combined, male and female, FIGS. 4, 6 and 8",extended the life span
same,onset of disease,[2]; [5],delays the onset of disease
same,survival,[2]; [5],extends the survival
same,deaths of animals in the treatment group during the drug holiday or a few days immediately succeeding it,"[2]; females, discontinuous dosing 3200 mg/Kg/day in drinking water, 21 days then 7 day drug holiday, FIG. 2",70%
same,trend in male mice,"[2]; ongoing IP injection study, 3200 mg/kg, male mice",positive male trend
"CCNCCCNCCCNCCCNCC [DENSPM, N(1),N(11)-diethylnorspermine]",effect on neurological score,"[1]; female mice, IP 24 mg/kg/day twice daily till death, FIG. 13",protective
same,toxicity in patients,[3],minimal toxicity
same,onset of disease,[2]; [6],delays the onset of disease
same,survival,[2]; [6],extends the survival
NC(=O)NO [hydroxyurea],effect on neurological score,"[1]; female mice, IP 250 mg/Kg/day once daily, day 50 until day 110, FIG. 11",protective
same,toxicity leading to stop of treatment,[4],discontinued after day 110 due to toxicity
same,onset of ALS disease,"[2]; IP 250 mg/Kg/day once daily, day 50 until day 110",delays the onset of ALS disease
same,life span,"[2]; female mice, IP 250 mg/Kg/day once daily, day 50 until day 110, FIG. 10",extended the life span
